Assays:
[1] = tested on: RWPE and PC3 cells overexpressing ERG; test: Matrigel invasion assay, RWPE and PC3 cells overexpressing ERG; assay type: cell-based; conditions: 500 nM
Description: Medium containing 10% FBS in the lower chamber served as chemoattractant. […] For colorimetric assays, the inserts were treated with 150 μl of 10% acetic acid and the absorbance measured at 560 nm using a spectrophotometer (GE Healthcare).

MYC signature = test: Gene expression array, GSEA of MYC signature, VCaP; assay type: cell-based; conditions: VCaP after JQ1 treatment
Description: Cells treated with only vehicle or 10 nM DHT served as controls. […] Expression profiling was performed using the Agilent Whole Human Genome Oligo Microarray (SantaClara, Calif.) according to the manufacturer's protocol. All samples were run in technical duplicates or quadruplets against control. Over- and under-expressed gene sets were generated by filtering to include only 2-fold average over- or underexpression (Log ratio with p<0.001) in all hybridizations.

Cc1sc2c(c1C)C(c1ccc(Cl)cc1)=N[C@@H](CC(=O)OC(C)(C)C)c1nnc(C)n1-2 [JQ1]
ERG-mediated invasion [1]: attenuation of ERG-mediated invasion
NES (MYC signature; gene set MYC_UP.V1_UP): −2.265
NES (MYC signature; gene set SCHLOSSER_MYC_AND_SERUM_RESPONSE_SYNERGY): −1.818
NES (MYC signature; gene set SCHLOSSER_MYC_TARGETS_AND_SERUM_RESPONSE_UP): −1.824
NES (MYC signature; gene set SCHUHMACHER_MYC_TARGETS_UP): −2.275
